We go through 16 compounds from patent US7851637B2, “Compounds and methods for inhibiting the interaction of BCL proteins with binding partners” (Infinity Pharmaceuticals, Inc., priority 2004, dated 2010).

In one assay the target is Bcl-xL (Homo sapiens, UniProt Q07817). In words: Bcl-xL binding affinity analysis (fluorescence polarization binding assay). Details: scale not given here. The source says:
(§1) Bcl-2 and Bcl-xL binding can be determined using a variety of known methods. One such assay is a sensitive and quantitative in vitro binding assay using fluorescence polarization (FP) described by Wang, J. -L.; Zhang, Z -J.; Choksi, S.; Sjam. S.; Lu, Z.; Croce, C. M.; Alnenri, E. S.; Komgold, R.; Huang, Z. Cell permeable Bcl-2 binding peptides: a chemical approach to apoptosis induction in tumor cells. Cancer Res. 2000, 60, 1498-1502).
(§2) Bcl-2 and Bcl-xL binding affinity analysis data is presented below for various compounds of the invention.
On the technique in general: Polarisation of emitted light reports the rotation of a fluorescent probe.

The next assay addresses Bcl-2 (Homo sapiens, UniProt P10415). In words: Bcl-2 binding affinity analysis (fluorescence polarization binding assay).
Excerpt: as §1, §2

Sequence of Bcl-xL (Q07817 whole entry): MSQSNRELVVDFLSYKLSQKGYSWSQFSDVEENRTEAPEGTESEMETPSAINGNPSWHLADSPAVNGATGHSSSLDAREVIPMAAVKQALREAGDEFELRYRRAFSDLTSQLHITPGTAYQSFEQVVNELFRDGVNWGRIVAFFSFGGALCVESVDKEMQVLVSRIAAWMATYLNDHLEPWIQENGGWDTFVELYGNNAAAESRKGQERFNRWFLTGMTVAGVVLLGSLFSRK
Sequence of Bcl-2 (P10415 whole entry): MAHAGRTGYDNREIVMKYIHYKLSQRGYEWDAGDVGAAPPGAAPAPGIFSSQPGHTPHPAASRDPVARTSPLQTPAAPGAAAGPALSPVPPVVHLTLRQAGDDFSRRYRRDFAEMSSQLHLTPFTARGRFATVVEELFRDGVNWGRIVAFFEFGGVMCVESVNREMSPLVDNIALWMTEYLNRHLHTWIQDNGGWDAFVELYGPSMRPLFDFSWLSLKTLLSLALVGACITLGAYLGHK

With `CC(O)C1C(CO)ON(Cc2cccc(CN(CCN(C)C)C(C)(C)c3ccccc3)c2)C1C(=O)NC1CC2CC(C1C)C2(C)C` (centres unmarked) [Compound 475], the “Bcl-XL binding affinity Ki” value at Bcl-xL was “♯”. Also, the inhibition constant (Ki) at Bcl-2 is under 800 nM.
In the same order, the values of `C[C@@H]1[C@@H](NC(=O)[C@@H]2[C@H]([C@H](C)O)[C@H](CO)ON2Cc2cccc(-c3cccc(C(=O)NCCN4CCN(C)CC4)c3)c2)C[C@H]2C[C@@H]1C2(C)C` [Compound 116] are “♯” and under 800 nM.
In the same order, the values of `CC(O)C1C(CO)ON(Cc2cccc(C(=O)NCc3ccccc3)c2)C1C(=O)NC1CC2CC(C1C)C2(C)C` (centres unmarked) [Compound 510] are “♯” and under 800 nM.
Take `C[C@@H]1[C@@H](NC(=O)[C@@H]2[C@H]([C@H](C)O)[C@H](CO)ON2Cc2cccc(CN(CCN(C)C)CCC(C)(C)C)c2)C[C@H]2C[C@@H]1C2(C)C` [Compound 203]: the “Bcl-XL binding affinity Ki” value on Bcl-xL is reported as “♯”. Moreover, the inhibition constant (Ki) at Bcl-2 is under 800 nM.
For `C[C@H](O)[C@@H]1[C@H](CO)ON(Cc2cccc(-c3ccc(NCCN4CCOCC4)cc3)c2)[C@@H]1C(=O)NC1CC2C[C@@H]([C@@H]1C)C2(C)C` (some centres unmarked) [Compound 278], in that order: “♯” and under 800 nM.
For `C[C@@H]1[C@@H](NC(=O)[C@@H]2[C@H]([C@H](C)O)[C@H](CO)ON2Cc2cccc(-c3cccc(C(=O)NCCCNC(=O)OC(C)(C)C)c3)c2)C[C@H]2C[C@@H]1C2(C)C` [Compound 154], in that order: “♯♯” and under 800 nM.
In the same order, the values of `CC(C)CCN(CCN(C)C)Cc1cccc(CN2O[C@@H](CO)[C@@H]([C@H](C)O)[C@H]2C(=O)N[C@H]2C[C@H]3C[C@@H]([C@@H]2C)C3(C)C)c1` [Compound 207] are “♯” and under 800 nM.
As to `CC(C)C[C@@H](CN(C)C)N(Cc1ccccc1)Cc1cccc(CN2O[C@@H](CO)[C@@H]([C@H](C)O)[C@H]2C(=O)NCc2ccc(-c3ccccc3)cc2)c1` [Compound 536], the “Bcl-XL binding affinity Ki” value on Bcl-xL was “♯”. This compound also displayed an inhibitory constant (Ki) on Bcl-2 of 800 to 6000 nM.
Regarding `C[C@@H]1[C@@H](NC(=O)[C@@H]2[C@H]([C@H](C)O)[C@H](CO)ON2Cc2cccc(-c3ccc(C(=O)N4CCOCC4)cc3)c2)C[C@H]2C[C@@H]1C2(C)C` [Compound 109], the “Bcl-XL binding affinity Ki” value on Bcl-xL is “♯”. Besides, the Ki at Bcl-2 is under 800 nM.
In the same order, the values of `CCCCC[C@H](O)C#Cc1ccc(CN2O[C@@H](CO)[C@@H]([C@H](C)O)[C@H]2C(=O)NCCCN(C)c2ccccc2)cc1` [Compound 46] are “♯” and over 50000 nM.
Take `Cc1cccc(CN(Cc2cccc(CN3OC(CO)C(C(C)O)C3C(=O)NC3CC4CC(C3C)C4(C)C)c2)C(CC(C)C)CN(C)C)c1O` (centres unmarked) [Compound 337]: the “Bcl-XL binding affinity Ki” value on Bcl-xL is reported as “♯”. In addition, at Bcl-2, the Ki is under 800 nM.
For the compound `C[C@@H](O)[C@H]1[C@@H](CO)ON(Cc2cccc(C#CC3(O)CCCC3)c2)[C@H]1C(=O)NCC1CCCCC1` [Compound 40], the “Bcl-XL binding affinity Ki” value at Bcl-xL is reported as “♯”. On Bcl-2, this compound showed an inhibitory constant (Ki) of over 50000 nM.
For `C[C@@H]1[C@@H](NC(=O)[C@@H]2[C@H]([C@H](C)O)[C@H](CO)ON2Cc2cccc(-c3ccc(C(N)=O)cc3)c2)C[C@H]2C[C@@H]1C2(C)C` [Compound 134], in that order: “♯” and under 800 nM.
In the same order, the values of `COc1c(CN(CCN(C)C)Cc2ccccc2)cccc1CN1O[C@@H](CO)[C@@H]([C@H](C)O)[C@H]1C(=O)NC1C[C@H]2C[C@@H]([C@@H]1C)C2(C)C` (some centres unmarked) [Compound 197] are “♯” and under 800 nM.
Consider `CNC(=O)c1cccc(-c2cccc(CN3O[C@@H](CO)[C@@H]([C@H](C)O)[C@H]3C(=O)N[C@H]3C[C@H]4C[C@@H]([C@@H]3C)C4(C)C)c2)c1` [Compound 220], for which the “Bcl-XL binding affinity Ki” value at Bcl-xL is listed as “♯”. This compound also gave a Ki at Bcl-2 of under 800 nM.
For `C[C@H](O)[C@@H]1[C@H](CO)ON(Cc2cccc(C#CC3(N)CCCCC3)c2)[C@@H]1C(=O)NCCCN(C)c1ccccc1` [Compound 28], in that order: “♯” and 6000 to 50000 nM.

The term Ki denotes the dissociation constant of the complex between target and ligand, obtained from inhibition or displacement.
